Experimental data: patent publication US20160243164A1, “ANTIMICROBIAL SILVER HYDROGEL COMPOSITION FOR THE TREATMENT OF BURNS AND WOUNDS” (CELACARE TECHNOLOGIES, LLC, priority 2011, published 2016)
In brackets after ≈: the same amount, converted by molar mass. Values belong to the compound of their own block, whether it stands above or below them.

Tests used:
[1] = topical exposure for 4 hours; cited from earlier work
[2] = test system: Candida albicans ATCC 10231; assay: microtube dilution MIC; format: cell-based; conditions: ATCC10231, Example 9, 48 hrs incubation
Method: (§1) In brief, a standard inoculum (100 μL of a 1:200 dilution of a 0.5 MacFarland turbidity standard) of each microorganism was prepared in standard growth media and added to equal volumes of two-fold serial dilutions of SC and SC-Gel. MICs were determined visually as the highest dilution of SC, or SC-Gel, that inhibited growth after incubating the mixtures overnight at 35° C., except for Candida albicans, which required 48 hrs incubation. […] The MIC dilution was converted to μg/mL by multiplying the neat drug (Ag^+) concentration by the dilution appropriate dilution factor.
In brief, a standard inoculum (100 μL of a 1:200 dilution of a 0.5 MacFarland turbidity standard) of each microorganism was prepared in standard growth media and added to equal volumes of two-fold serial dilutions of SC and SC-Gel. MICs were determined visually as the highest dilution of SC, or SC-Gel, that inhibited growth after incubating the mixtures overnight at 35° C., except for C. albicans, which required 48 hrs incubation. […] The MIC dilution was converted to μg/mL by multiplying the neat drug (Ag^+) concentration by the dilution appropriate dilution factor.

[3] = test system: Escherichia coli ATCC 25922; assay: microtube dilution MIC; format: cell-based; conditions: Example 13; E. coli ATCC 25922
Method: as §1
The method described in Example 8 for minimum inhibitory concentration (MIC) was utilized for evaluation of activity of the compositions against Staphylococcus aureus and Streptococcus pyogenes (Gram-positive cocci) and Pseudomonas aeruginosa and Escherichia coli (Gram-negative rod) organisms.

[4] = test system: Pseudomonas aeruginosa ATCC 27853; assay: microtube dilution MIC; format: cell-based; conditions: Example 13; P. aeruginosa ATCC 27853
Method: as §1
In brief, a standard inoculum (100 μL of a 1:200 dilution of a 0.5 MacFarland turbidity standard) of each microorganism was prepared in standard growth media and added to equal volumes of two-fold serial dilutions of SC and SC-Gel. MICs were determined visually as the highest dilution of SC, or SC-Gel, that inhibited growth after incubating the mixtures overnight at 35° C., except for C. albicans, which required 48 hrs incubation. […] The MIC dilution was converted to μg/mL by multiplying the neat drug (Ag^+) concentration by the dilution appropriate dilution factor. […]

SMILES: O=C(O)CN(CCN(CC(=O)O)CC(=O)O)CC(=O)O.[Na].[Na] [Disodium EDTA, disodium ethylenediaminetetraacetic acid]
reactivity in human patch test [1]: no reactivity

MIC [2]: 0.49 µg/mL (≈ 1.18 µM)
SMILES: Clc1ccc(COC(Cn2ccnc2)c2ccc(Cl)cc2Cl)c(Cl)c1 (stereo not shown) [MZL, Miconazole]

SMILES: O=C([O-])CC(O)(CC(=O)[O-])C(=O)[O-].[Ag+].[Ag+].[Ag+] [SC Liquid, silver citrate]
Minimal Inhibitory Concentration (MIC) [3]: 7.5 µg/mL
Minimal Inhibitory Concentration (MIC) [4]: 11.25 µg/mL
